Experimental data reported in the supplement of paper PMC13207355.

Assays:
Conditions in all cases: exposure time: 72 h
E31 [1] = patient-derived glioblastoma stem cells of proneural subtype; assay: phenotypic distance (Euclidean, principal components) from DMSO controls (arbitrary units); higher = stronger morphological change
E57 [2] = patient-derived glioblastoma stem cells of mesenchymal subtype; assay: as above
E21 [3] = patient-derived glioblastoma stem cells of mesenchymal subtype; assay: as above
E34 [4] = patient-derived glioblastoma stem cells of proneural subtype; assay: as above
E28 [5] = patient-derived glioblastoma stem cells of classical subtype; assay: as above
E13 [6] = patient-derived glioblastoma stem cells of classical subtype; assay: as above
FT3469 [7] = normal neural stem cell line; assay: as above
E31 [8] = assay: surviving fraction (nuclei count normalised to DMSO); higher = more cells surviving (less toxic)
E57 [9] = assay: as above
E21 [10] = assay: as above
E34 [11] = assay: as above
E28 [12] = assay: as above
E13 [13] = assay: as above
FT3469 [14] = assay: as above
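Throughout, for phenotypic distance (Euclidean, principal components) from DMSO controls: cell Painting imaging in 384-well plates, CellProfiler features reduced to at least 20 principal components, Euclidean distance versus same-plate DMSO vehicle wells (0.1% v/v), median over six images per well.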
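Throughout, for surviving fraction (nuclei count normalised to DMSO): nuclei counted by high-content imaging of Hoechst-stained cells in laminin-coated 384-well plates, relative to 0.1% DMSO vehicle wells, with staurosporine as cell-death control.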

C/C=C1\NC(=O)[C@H]2CSSCC/C=C/[C@H](CC(=O)N[C@H](C(C)C)C(=O)N2)OC(=O)[C@H](C(C)C)NC1=O [Romidepsin]
Conditions	phenotypic distance	surviving fraction
E13 [6], 4.1 nM	4.99	–
E13 [6], 12.3 nM	4.79	–
E13 [6], 37 nM	4.79	–
E13 [6], 111.1 nM	5.03	–
E13 [6], 333.3 nM	4.51	–
E13 [6], 1000 nM	6.31	–
E13 [6], 3000 nM	8.31	–
E13 [13], 4.1 nM	–	0.219
E13 [13], 12.3 nM	–	0.212
E13 [13], 37 nM	–	0.191
E13 [13], 111.1 nM	–	0.211
E13 [13], 333.3 nM	–	0.169
E13 [13], 1000 nM	–	0.0814
E13 [13], 3000 nM	–	0.00947
E21 [3], 4.1 nM	6.02	–
E21 [3], 12.3 nM	7.55	–
E21 [3], 37 nM	7.46	–
E21 [3], 111.1 nM	6.75	–
E21 [3], 333.3 nM	7.68	–
E21 [3], 1000 nM	9.06	–
E21 [3], 3000 nM	20.2	–
E21 [10], 4.1 nM	–	0.102
E21 [10], 12.3 nM	–	0.0766
E21 [10], 37 nM	–	0.0713
E21 [10], 111.1 nM	–	0.0809
E21 [10], 333.3 nM	–	0.049
E21 [10], 1000 nM	–	0.00532
E21 [10], 3000 nM	–	0
E28 [5], 4.1 nM	4.95	–
E28 [5], 12.3 nM	5.55	–
E28 [5], 37 nM	5.4	–
E28 [5], 111.1 nM	4.65	–
E28 [5], 333.3 nM	5.39	–
E28 [5], 1000 nM	5.54	–
E28 [5], 3000 nM	6.46	–
E28 [12], 4.1 nM	–	0.157
E28 [12], 12.3 nM	–	0.153
E28 [12], 37 nM	–	0.138
E28 [12], 111.1 nM	–	0.194
E28 [12], 333.3 nM	–	0.17
E28 [12], 1000 nM	–	0.17
E28 [12], 3000 nM	–	0.0691
E31 [1], 4.1 nM	12.3	–
E31 [1], 12.3 nM	10.3	–
E31 [1], 37 nM	11	–
E31 [1], 111.1 nM	8.91	–
E31 [1], 333.3 nM	7.47	–
E31 [1], 1000 nM	18.1	–
E31 [1], 3000 nM	7.62	–
E31 [8], 4.1 nM	–	0.00149
E31 [8], 12.3 nM	–	0.0134
E31 [8], 37 nM	–	0.00446
E31 [8], 111.1 nM	–	0.00892
E31 [8], 333.3 nM	–	0.00594
E31 [8], 1000 nM	–	0.00446
E31 [8], 3000 nM	–	0.00892
E34 [4], 4.1 nM	8.64	–
E34 [4], 12.3 nM	7.96	–
E34 [4], 37 nM	9.03	–
E34 [4], 111.1 nM	8.78	–
E34 [4], 333.3 nM	7.71	–
E34 [4], 1000 nM	8.57	–
E34 [4], 3000 nM	7.26	–
E34 [11], 4.1 nM	–	0.302
E34 [11], 12.3 nM	–	0.292
E34 [11], 37 nM	–	0.271
E34 [11], 111.1 nM	–	0.359
E34 [11], 333.3 nM	–	0.286
E34 [11], 1000 nM	–	0.245
E34 [11], 3000 nM	–	0.1
E57 [2], 4.1 nM	8.58	–
E57 [2], 12.3 nM	7.79	–
E57 [2], 37 nM	9.5	–
E57 [2], 111.1 nM	9.16	–
E57 [2], 333.3 nM	8.37	–
E57 [2], 1000 nM	9.9	–
E57 [2], 3000 nM	11.1	–
E57 [9], 4.1 nM	–	0.062
E57 [9], 12.3 nM	–	0.0535
E57 [9], 37 nM	–	0.0389
E57 [9], 111.1 nM	–	0.0558
E57 [9], 333.3 nM	–	0.0428
E57 [9], 1000 nM	–	0.0349
E57 [9], 3000 nM	–	0.00732
FT3469 [7], 4.1 nM	3.71	–
FT3469 [7], 12.3 nM	2.82	–
FT3469 [7], 37 nM	3.47	–
FT3469 [7], 111.1 nM	2.86	–
FT3469 [7], 333.3 nM	3.77	–
FT3469 [7], 1000 nM	5.6	–
FT3469 [7], 3000 nM	8.06	–
FT3469 [14], 4.1 nM	–	0.237
FT3469 [14], 12.3 nM	–	0.267
FT3469 [14], 37 nM	–	0.31
FT3469 [14], 111.1 nM	–	0.274
FT3469 [14], 333.3 nM	–	0.321
FT3469 [14], 1000 nM	–	0.123
FT3469 [14], 3000 nM	–	0.0672
